How the values were obtained:
[1] = biological target: T1, Human ACC1 (Homo sapiens, UniProt Q13085); experiment: In vitro enzymatic ACC activity assay (malachite green), ACC1; type: biochemical; conditions: recombinant His-tagged enzyme, absorbance at 620 nm
T1 construct: made in house; host or cells: SF-9 insect cells (baculovirus, pFAST-BacHTc)
Description: (§1) Provided in Example A is an in vitro enzymatic ACC activity assay for activity against ACC. The binding affinity of the test compound to ACC1 or ACC2 is determined by the changes in absorbance (at 620 nm); […]. It should be noted that a variety of other expression systems and hosts are also suitable for the expression of ACC, as would be readily appreciated by one of skill in the art.
Human ACC1 cDNA was amplified from human liver cDNA by polymerase chain reaction using primers; 5′[…]3′ (SEQ ID NO: 1) and 5′[…]3′ (SEQ ID NO: 2). The amplified DNA fragment was digested by restriction enzyme SalI and NotI, and cloned into pFAST-BacHTc (Invitrogen). This plasmid DNA was used for preparation of recombinant vaculovirus with BAC-TO-BAC Baculovirus Expression System (Invitrogen).
SF-9 cells were infected with the vaculovirus and cultured at 27° C. for 3 days. Harvested cells were homogenized in buffer A (25 mM HEPES (pH7.5), 130 mM NaCl, 1 mM EDTA, 25 mM sodium glycerophosphate, 1 mM sodium orthovanadate, 10% glycerol, complete protease inhibitor), and subjected to ultracentrifuge at 185700×g for 50 min at 4° C. ACC1 protein with 6×His-tag at the N-terminal was purified from the supernatant using Ni-NTA Super Flow Gel (QIAGEN). Eluted protein was dialysed against buffer B (50 mM HEPES (pH 7.5), 300 mM NaCl, 10 mM MgCl2, 10 mM tripotassium citrate, 2 mM dithiothreitol) and concentrated using Vivaspin20 ultrafiltration tube (Sartorius).
(§2) Malachite green solution was prepared by mixing 100 mL of solution A (0.12% malachite green in 5NH2SO4), 25 mL of solution B (7.5% ammonium molybdate) and 2 mL of solution C (11% TWEEN-20).
(§3) ACC1 was diluted to 8 μg/mL in reaction buffer (50 mM HEPES pH7.5, 10 mM MgCl2, 10 mM tripotassium citrate, 2 mM DTT, 0.75 mg/mL fatty acid free BSA) and 10 μL diluted enzyme solution was pored into each well of 384-well clear bottom plate. Test compound was diluted in the reaction buffer and 5 μL of the compound solution was added into each well, and the mixture was incubated at 30° C. for 60 minutes. Reaction was initiated by addition of 5 μL substrate solution (50 mM KHCO3, 200 μM ATP, 200 μM acetyl-CoA). After incubation at 30° C. for 20 minutes, reaction was terminated by addition of 5 μL malachite green solution and absorbance at 620 nm was measured.
(§4) Percent activity at each concentration of compound was calculated from the following equation: […]
(§5) Data were subjected to nonlinear regression analysis using GraphPad Prism Software (GraphPad Software Inc.) to obtain IC50 values.

[2] = biological target: T2, Human ACC2 (Homo sapiens, UniProt O00763); experiment: In vitro enzymatic ACC activity assay (malachite green), ACC2; type: biochemical; conditions: recombinant His-tagged enzyme, absorbance at 620 nm
T2 construct: made in house; host or cells: SF-9 insect cells (baculovirus, pFAST-BacHTa)
Description: as §1
Human ACC2 cDNA except coding region for mitochondria localization sequence was amplified from human skeletal muscle cDNA by polymerase chain reaction using primers; 5′[…]3′ (SEQ ID NO: 3) and 5′[…]3′ (SEQ ID NO: 4). The amplified DNA fragment was digested by SalI and AflII, and cloned into pFAST-BacHTa (Invitrogen). Preparation of recombinant vaculovirus, infection of the virus to SF-9 cells and purification of recombinant ACC2 protein with 6×His-tag at the N-terminal were performed in the same method as described above.
as §2, §3
ACC2 was diluted to 6.4 μg/mL in reaction buffer, and the activity was measured by the same method as described for ACC1.
as §4, §5

T2 sequence (O00763 117-2458 limits assumed): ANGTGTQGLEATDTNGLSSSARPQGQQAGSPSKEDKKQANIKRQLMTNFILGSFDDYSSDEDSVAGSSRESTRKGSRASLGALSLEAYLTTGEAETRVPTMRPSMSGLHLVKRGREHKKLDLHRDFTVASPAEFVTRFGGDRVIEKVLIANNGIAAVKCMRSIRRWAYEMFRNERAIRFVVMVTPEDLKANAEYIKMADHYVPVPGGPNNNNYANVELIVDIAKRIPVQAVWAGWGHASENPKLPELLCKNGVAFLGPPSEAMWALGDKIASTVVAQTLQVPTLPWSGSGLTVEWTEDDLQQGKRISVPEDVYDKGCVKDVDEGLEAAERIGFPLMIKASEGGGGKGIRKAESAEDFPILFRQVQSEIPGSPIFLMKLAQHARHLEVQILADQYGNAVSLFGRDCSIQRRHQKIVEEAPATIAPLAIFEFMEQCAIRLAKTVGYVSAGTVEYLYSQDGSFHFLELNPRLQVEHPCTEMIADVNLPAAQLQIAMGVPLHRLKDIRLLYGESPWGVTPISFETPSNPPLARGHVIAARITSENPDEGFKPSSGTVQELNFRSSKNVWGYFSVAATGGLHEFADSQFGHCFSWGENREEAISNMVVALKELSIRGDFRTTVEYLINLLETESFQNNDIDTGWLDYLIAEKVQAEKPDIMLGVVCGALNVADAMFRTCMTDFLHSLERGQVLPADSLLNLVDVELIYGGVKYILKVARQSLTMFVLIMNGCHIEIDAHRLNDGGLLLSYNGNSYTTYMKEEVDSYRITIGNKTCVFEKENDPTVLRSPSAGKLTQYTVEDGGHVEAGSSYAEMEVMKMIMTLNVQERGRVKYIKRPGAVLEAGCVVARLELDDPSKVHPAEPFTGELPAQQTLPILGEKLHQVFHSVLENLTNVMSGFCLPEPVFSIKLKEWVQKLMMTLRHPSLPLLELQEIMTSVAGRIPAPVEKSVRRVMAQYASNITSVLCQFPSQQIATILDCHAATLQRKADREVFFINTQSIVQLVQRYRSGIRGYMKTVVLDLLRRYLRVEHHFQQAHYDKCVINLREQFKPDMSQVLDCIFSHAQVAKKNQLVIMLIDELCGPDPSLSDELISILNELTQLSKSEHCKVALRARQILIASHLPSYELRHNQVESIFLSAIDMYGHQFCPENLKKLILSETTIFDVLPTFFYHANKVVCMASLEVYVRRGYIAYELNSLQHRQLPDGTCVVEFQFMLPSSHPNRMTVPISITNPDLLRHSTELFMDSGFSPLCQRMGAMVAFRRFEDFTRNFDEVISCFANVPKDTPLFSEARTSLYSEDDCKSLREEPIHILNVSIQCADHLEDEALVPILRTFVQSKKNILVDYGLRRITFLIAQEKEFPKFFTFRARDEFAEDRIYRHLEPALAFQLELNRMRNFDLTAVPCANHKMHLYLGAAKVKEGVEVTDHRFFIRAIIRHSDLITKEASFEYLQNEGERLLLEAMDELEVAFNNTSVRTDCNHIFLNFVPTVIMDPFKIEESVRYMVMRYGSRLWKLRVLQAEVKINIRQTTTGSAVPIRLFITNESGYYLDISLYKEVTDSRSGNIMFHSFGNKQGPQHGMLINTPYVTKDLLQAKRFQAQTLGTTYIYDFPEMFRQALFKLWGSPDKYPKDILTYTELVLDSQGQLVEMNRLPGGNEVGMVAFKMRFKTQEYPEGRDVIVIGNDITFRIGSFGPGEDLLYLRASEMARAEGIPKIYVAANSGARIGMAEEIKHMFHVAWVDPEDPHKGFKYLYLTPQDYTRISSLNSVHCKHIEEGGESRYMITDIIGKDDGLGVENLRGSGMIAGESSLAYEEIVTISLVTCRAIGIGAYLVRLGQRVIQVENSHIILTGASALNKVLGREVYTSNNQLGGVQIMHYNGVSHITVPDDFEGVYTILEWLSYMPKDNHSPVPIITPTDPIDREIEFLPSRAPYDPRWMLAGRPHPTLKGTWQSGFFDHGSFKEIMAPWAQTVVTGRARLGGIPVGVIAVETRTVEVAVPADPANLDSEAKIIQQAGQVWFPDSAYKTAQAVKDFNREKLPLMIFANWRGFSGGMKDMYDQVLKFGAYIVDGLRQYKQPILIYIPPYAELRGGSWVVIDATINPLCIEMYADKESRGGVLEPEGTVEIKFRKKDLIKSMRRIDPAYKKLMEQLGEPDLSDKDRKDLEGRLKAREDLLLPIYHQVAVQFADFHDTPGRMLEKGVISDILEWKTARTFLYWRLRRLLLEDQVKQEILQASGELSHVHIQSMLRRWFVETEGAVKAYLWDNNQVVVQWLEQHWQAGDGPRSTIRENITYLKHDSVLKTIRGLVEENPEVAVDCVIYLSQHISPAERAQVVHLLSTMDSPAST

IC50 [1] | IC50 [2] | Structure (SMILES)
> 50 µM | > 50 µM | CCNC(=O)Nc1sc2ccccc2c1C(=O)N1CCN(S(=O)(=O)c2ccccc2C#N)CC1 [Example 2, 1-(3-(4-(2-cyanophenylsulfonyl)piperazine-1-carbonyl)benzo[b]thiophen-2-yl)-3-ethylurea]
> 50 µM | > 50 µM | CCNC(=O)Nc1sc2ccccc2c1C(=O)N1CCN(S(=O)(=O)c2ccccc2)CC1 [Example 3, ethyl-3-(3-(4-(phenylsulfonyl)piperazine-1-carbonyl)benzo[b]thiophen-2-yl)urea]
> 50 µM | 5 to 50 µM | CCNC(=O)Nc1sc2ccccc2c1C(=O)N1CCN(S(=O)(=O)c2ccc3c(c2)OCO3)CC1 [Example 4, 1-(3-(4-(benzo[d][1,3]dioxol-5-ylsulfonyl)piperazine-1-carbonyl)benzo[b]thiophen-2-yl)-3-ethylurea]
5 to 50 µM | 5 to 50 µM | CCNC(=O)Nc1sc2ccccc2c1C(=O)N1CCN(S(=O)(=O)c2cccc(S(C)(=O)=O)c2)CC1 [Example 5, ethyl-3-(3-(4-(3-(methylsulfonyl)phenylsulfonyl)piperazine-1-carbonyl)benzo[b]thiophen-2-yl)urea]
> 50 µM | > 50 µM | CCNC(=O)Nc1sc2ccccc2c1C(=O)N1CCN(S(=O)(=O)c2ccc3nsnc3c2)CC1 [Example 6, 1-(3-(4-(benzo[c][1,2,5]thiadiazol-5-ylsulfonyl)piperazine-1-carbonyl)benzo[b]thiophen-2-yl)-3-ethylurea]
> 50 µM | < 5 µM | CCNC(=O)Nc1sc2ccccc2c1C(=O)N1CCN(S(=O)(=O)c2cccc(OC)c2)CC1 [Example 7, ethyl-3-(3-(4-(3-methoxyphenylsulfonyl)piperazine-1-carbonyl)benzo[b]thiophen-2-yl)urea]
5 to 50 µM | < 5 µM | CCNC(=O)Nc1sc2ccccc2c1C(=O)N1CCN(S(=O)(=O)c2cccc(NC(C)=O)c2)CC1 [Example 8, N-(3-(4-(2-(3-ethylureido)benzo[b]thiophene-3-carbonyl)piperazin-1-ylsulfonyl)phenyl)acetamide]
< 5 µM | < 5 µM | CCNC(=O)Nc1sc2ccccc2c1C(=O)N1CCN(S(=O)(=O)c2ccc(Cl)c(S(N)(=O)=O)c2)CC1 [Example 9, 2-chloro-5-(4-(2-(3-ethylureido)benzo[b]thiophene-3-carbonyl)piperazin-1-ylsulfonyl)benzenesulfonamide]
> 50 µM | 5 to 50 µM | CCNC(=O)Nc1sc2ccccc2c1C(=O)N1CCN(S(=O)(=O)c2cccc(-c3csc(C)n3)c2)CC1 [Example 10, ethyl-3-(3-(4-(3-(2-methylthiazol-4-yl)phenylsulfonyl)piperazine-1-carbonyl)benzo[b]thiophen-2-yl)urea]
5 to 50 µM | 5 to 50 µM | CCNC(=O)Nc1sc2ccccc2c1C(=O)N1CCN(S(=O)(=O)c2cccc(-c3nnc(C)o3)c2)CC1 [Example 11, ethyl-3-(3-(4-(3-(5-methyl-1,3,4-oxadiazol-2-yl)phenylsulfonyl)piperazine-1-carbonyl)benzo[b]thiophen-2-yl)urea]
5 to 50 µM | < 5 µM | CCNC(=O)Nc1sc2ccccc2c1C(=O)N1CCN(S(=O)(=O)c2cccc(-c3ccnc(C)n3)c2)CC1 [Example 12, ethyl-3-(3-(4-(3-(2-methylpyrimidin-4-yl)phenylsulfonyl)piperazine-1-carbonyl)benzo[b]thiophen-2-yl)urea]
< 5 µM | < 5 µM | CCNC(=O)Nc1sc2ccccc2c1C(=O)N1CCN(S(=O)(=O)c2cccc(-c3noc(C)n3)c2)CC1 [Example 13, ethyl-3-(3-(4-(3-(5-methyl-1,2,4-oxadiazol-3-yl)phenylsulfonyl)piperazine-1-carbonyl)benzo[b]thiophen-2-yl)urea]
< 5 µM | < 5 µM | CCNC(=O)Nc1sc2ccccc2c1C(=O)N1CCN(S(=O)(=O)c2ccc(N3CCOCC3)nc2)CC1 [Example 14, ethyl-3-(3-(4-(6-morpholinopyridin-3-ylsulfonyl)piperazine-1-carbonyl)benzo[b]thiophen-2-yl)urea]
> 50 µM | > 50 µM | CCNC(=O)Nc1sc2ccccc2c1C(=O)N1CCN(S(=O)(=O)c2cccc(OC(F)(F)F)c2)CC1 [Example 15, ethyl-3-(3-(4-(3-(trifluoromethoxy)phenylsulfonyl)piperazine-1-carbonyl)benzo[f]thiophen-2-yl)urea]
> 50 µM | > 50 µM | CCNC(=O)Nc1sc2ccccc2c1C(=O)N1CCN(S(=O)(=O)c2cccc([N+](=O)[O-])c2)CC1 [Example 16, ethyl-3-(3-(4-(3-nitrophenylsulfonyl)piperazine-1-carbonyl)benzo[b]thiophen-2-yl)urea]
5 to 50 µM | 5 to 50 µM | CCNC(=O)Nc1sc2ccccc2c1C(=O)N1CCN(S(=O)(=O)C2CCS(=O)(=O)C2)CC1 (stereo not shown) [Example 17, ethyl-3-(3-(4-(1,1-dioxotetrahydrothiophen-3-ylsulfonyl)piperazine-1-carbonyl)benzo[b]thiophen-2-yl)urea]
< 5 µM | < 5 µM | CCNC(=O)Nc1sc2ccccc2c1C(=O)N1CCN(S(=O)(=O)c2ccc3c(c2)OCCCO3)CC1 [Example 18, 1-(3-(4-(3,4-dihydro-2H-benzo[b][1,4]dioxepin-7-ylsulfonyl)piperazine-1-carbonyl)benzo[b]thiophen-2-yl)-3-ethylurea]
< 5 µM | < 5 µM | CCNC(=O)Nc1sc2ccccc2c1C(=O)N1CCN(S(=O)(=O)c2ccc(OC)c(NC(C)=O)c2)CC1 [Example 19, N-(5-(4-(2-(3-ethylureido)benzo[b]thiophene-3-carbonyl)piperazin-1-ylsulfonyl)-2-methoxyphenyl)acetamide]
< 5 µM | < 5 µM | CCNC(=O)Nc1sc2ccccc2c1C(=O)N1CCN(S(=O)(=O)c2cccc(C(C)=O)c2)CC1 [Example 20, 1-(3-(4-(3-acetylphenylsulfonyl)piperazine-1-carbonyl)benzo[b]thiophen-2-yl)-3-ethylurea]
< 5 µM | < 5 µM | CCNC(=O)Nc1sc2ccccc2c1C(=O)N1CCN(S(=O)(=O)c2ccc3ncsc3c2)CC1 [Example 21, 1-(3-(4-(benzo[d]thiazol-6-ylsulfonyl)piperazine-1-carbonyl)benzo[b]thiophen-2-yl)-3-ethylurea]
> 50 µM | < 5 µM | CCNC(=O)Nc1sc2ccccc2c1C(=O)N1CCN(S(=O)(=O)c2ccc(N3CCCC3=O)cc2)CC1 [Example 22, ethyl-3-(3-(4-(4-(2-oxopyrrolidin-1-yl)phenylsulfonyl)piperazine-1-carbonyl)benzo[b]thiophen-2-yl)urea]
< 5 µM | < 5 µM | CCNC(=O)Nc1sc2ccccc2c1C(=O)N1CCN(S(=O)(=O)c2ccc(OC)c(OC)c2)CC1 [Example 23, 1-(3-(4-(3,4-dimethoxyphenylsulfonyl)piperazine-1-carbonyl)benzo[b]thiophen-2-yl)-3-ethylurea]
< 5 µM | < 5 µM | CCNC(=O)Nc1sc2ccccc2c1C(=O)N1CCN(S(=O)(=O)c2ccc(NC(C)=O)cc2)CC1 [Example 24, N-(4-(4-(2-(3-ethylureido)benzo[b]thiophene-3-carbonyl)piperazin-1-ylsulfonyl)phenyl)acetamide]

From patent US20090005375A1, “ACETYL COENZYME A CARBOXYLASE INHIBITORS” (priority 2007, published 2009)
